Laboratory results published in PubChem BioAssay (NCI).
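Growth conditions: 96-well plates. Treatment: test compound, 48 hours, 5 concentrations. Analysis: linear interpolation between bracketing concentrations; unreached endpoints set to highest concentration. At the GI50, growth is halved. The concentration for full growth arrest is given as TGI.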

Assays:
Experiment in all cases: NCI-60 cell line screen, 48 h
[1] = system: COLO 205 colon
[2] = system: TK-10 renal
[3] = system: OVCAR-4 ovarian
[4] = system: IGROV1 ovarian
[5] = system: NCI/ADR-RES ovarian
[6] = system: MOLT-4 leukemia
[7] = system: SF-295 CNS
[8] = system: DU-145 prostate
[9] = system: MCF7 breast
[10] = system: SN12C renal
[11] = system: 786-0 renal
[12] = system: SW-620 colon
[13] = system: MDA-MB-435
[14] = system: PC-3 prostate
[15] = system: OVCAR-8 ovarian
[16] = system: MALME-3M melanoma
[17] = system: SK-MEL-5 melanoma
[18] = system: SK-MEL-28 melanoma
[19] = system: KM12 colon
[20] = system: T-47D breast
[21] = system: HCT-116 colon
[22] = system: SNB-19 CNS
[23] = system: A498 renal
[24] = system: UO-31 renal
[25] = system: CCRF-CEM leukemia
[26] = system: HT29 colon
[27] = system: M14 melanoma
[28] = system: U251 CNS
[29] = system: NCI-H522 lung
[30] = system: NCI-H23 lung
[31] = system: UACC-257 melanoma
[32] = system: SF-268 CNS
[33] = system: HCT-15 colon
[34] = system: HS 578T breast
[35] = system: HL-60(TB) leukemia
[36] = system: OVCAR-5 ovarian
[37] = system: ACHN renal
[38] = system: NCI-H460 lung
[39] = system: SF-539 CNS
[40] = system: EKVX NSCLC
[41] = system: A549 NSCLC
[42] = system: SR leukemia
[43] = system: NCI-H226 lung
[44] = system: CAKI-1 renal
[45] = system: SNB-75 CNS
[46] = system: RXF 393 renal
[47] = system: HCC-2998 colon
[48] = system: MDA-MB-231 breast
[49] = system: K-562 leukemia
[50] = system: HOP-62 NSCLC
[51] = system: LOX IMVI melanoma
[52] = system: BT-549 breast
[53] = system: SK-OV-3 ovarian
[54] = system: RPMI-8226 leukemia
[55] = system: UACC-62 melanoma
[56] = system: SK-MEL-2 melanoma
[57] = system: HOP-92 NSCLC
[58] = system: OVCAR-3 ovarian

O=C(/C=C/c1cc(Cl)ccc1Cl)Nc1ncc(Cc2ccc(Cl)cc2)s1
GI50 [1]: 82.3 nM | TGI [1]: 378 nM | GI50 [2]: 1300 nM | TGI [2]: 11100 nM | GI50 [3]: 1590 nM | TGI [3]: 10800 nM | GI50 [4]: 165 nM | TGI [4]: 16300 nM | GI50 [5]: 42.9 nM | TGI [5]: 2280 nM | GI50 [6]: 122 nM | TGI [6]: > 100000 nM | GI50 [7]: 38.2 nM | TGI [7]: 5130 nM | GI50 [8]: 300 nM | TGI [8]: 15900 nM | GI50 [9]: 83.3 nM | TGI [9]: > 38800 nM | GI50 [10]: 150 nM | TGI [10]: 11700 nM | GI50 [11]: 112 nM | TGI [11]: 3240 nM | GI50 [12]: 45.4 nM | TGI [12]: > 100000 nM | GI50 [13]: 19.2 nM | TGI [13]: 41.4 nM | GI50 [14]: 105 nM | TGI [14]: > 53700 nM | GI50 [15]: 69.5 nM | TGI [15]: 1840 nM | GI50 [16]: 866 nM | TGI [16]: 43300 nM | GI50 [17]: 299 nM | TGI [17]: 5190 nM | GI50 [18]: 1980 nM | TGI [18]: 53400 nM | GI50 [19]: 53.5 nM | TGI [19]: > 28100 nM | GI50 [20]: 14100 nM | TGI [20]: > 100000 nM | GI50 [21]: 42 nM | TGI [21]: 5850 nM | GI50 [22]: 70.2 nM | TGI [22]: 31400 nM | GI50 [23]: 31.6 nM | TGI [23]: 235 nM | GI50 [24]: 142 nM | TGI [24]: 7360 nM | GI50 [25]: 37.6 nM | TGI [25]: > 100000 nM | GI50 [26]: 86.8 nM | TGI [26]: 1210 nM | GI50 [27]: 40.5 nM | TGI [27]: 1490 nM | GI50 [28]: 39.5 nM | TGI [28]: 3880 nM | GI50 [29]: 33.3 nM | TGI [29]: 155 nM | GI50 [30]: 67.3 nM | TGI [30]: 11000 nM | GI50 [31]: 226 nM | TGI [31]: > 46900 nM | GI50 [32]: 1170 nM | TGI [32]: 52900 nM | GI50 [33]: 44.8 nM | TGI [33]: > 37900 nM | GI50 [34]: 52.4 nM | TGI [34]: 6180 nM | GI50 [35]: 28.2 nM | TGI [35]: 256 nM | GI50 [36]: 197 nM | TGI [36]: 13800 nM | GI50 [37]: 128 nM | TGI [37]: 5290 nM | GI50 [38]: 64 nM | TGI [38]: 1510 nM | GI50 [39]: 32.8 nM | TGI [39]: 202 nM | GI50 [40]: 158 nM | TGI [40]: > 72900 nM | GI50 [41]: 99.2 nM | TGI [41]: 13000 nM | GI50 [42]: 32.4 nM | TGI [42]: > 100000 nM | GI50 [43]: 310 nM | TGI [43]: 12000 nM | GI50 [44]: 61.8 nM | TGI [44]: 2170 nM | GI50 [45]: 39.1 nM | TGI [45]: 2470 nM | GI50 [46]: 27.6 nM | TGI [46]: 306 nM | GI50 [47]: 209 nM | TGI [47]: 10700 nM | GI50 [48]: 179 nM | TGI [48]: 9530 nM | GI50 [49]: 35.2 nM | TGI [49]: > 100000 nM | GI50 [50]: 80.3 nM | TGI [50]: 6030 nM | GI50 [51]: 101 nM | TGI [51]: 11300 nM | GI50 [52]: 57.4 nM | TGI [52]: 379 nM | GI50 [53]: 78.7 nM | TGI [53]: 17000 nM | GI50 [54]: 67.4 nM | TGI [54]: 16500 nM | GI50 [55]: 50.7 nM | TGI [55]: 18000 nM | GI50 [56]: 144 nM | TGI [56]: 4520 nM | GI50 [57]: 715 nM | TGI [57]: 5870 nM | GI50 [58]: 113 nM | TGI [58]: 1280 nM
